One may read the LC50 as the concentration lethal to half of the exposed cells or organisms. A low value points to greater toxicity. Usually EC50 stands for the concentration at which the effect is half-maximal. The LD50 is the dose expected to kill half of the subjects tested. Read a low LD50 as greater toxicity.

The text below walks through data of ChEMBL document CHEMBL1140509, “Rynaxypyr: a new insecticidal anthranilic diamide that acts as a potent and selective ryanodine receptor activator” (Bioorg Med Chem Lett, 2007).

Molecules are shown by their SMILES. ≈ marks a conversion by molar mass, not a printed value. Where “and” joins values, the source holds several entries; their conditions need not be identical. Identical values can stand only once. Calls of active or inactive are those of the source. No cut-off for these calls is given here.

In the first data set the test system is Heliothis virescens. Nature of the data set: Insecticidal activity against Heliothis virescens. The format is functional.
Settings: not given
In turn, `Cc1cc(Cl)cc(C(=O)NC(C)C)c1NC(=O)c1cc(Br)nn1-c1ncccc1Cl` displayed an LC50 of 0.02 µg/mL (≈ 0.0391 µM).
As to `Cc1cc(C(F)(F)F)cc(C(=O)NC(C)C)c1NC(=O)c1cc(C(F)(F)F)nn1-c1ncccc1Cl`, the LC50 was found to be 0.11 µg/mL (≈ 0.206 µM).
Turning to `COc1cc(C(=O)Nc2c(C)cc(Cl)cc2C(=O)NC(C)C)n(-c2ncccc2Cl)n1`, the LC50 is 1.14 µg/mL (≈ 2.47 µM).
`CNC(=O)c1cc(Br)cc(C)c1NC(=O)c1cc(Br)nn1-c1ncccc1Cl` registered an LC50 of 0.11 µg/mL (≈ 0.208 µM).
For the compound `Cc1cc(Cl)cc(C(=O)NC(C)C)c1NC(=O)c1cc(C(F)(F)F)nn1-c1ncccc1Cl`, the LC50 worked out at 0.02 µg/mL (≈ 0.04 µM).
In turn, `CNC(=O)c1cc(Cl)cc(C)c1NC(=O)c1cc(OC)nn1-c1ncccc1Cl` came in with an LC50 of 2.43 µg/mL (≈ 5.6 µM).
Turning to `CNC(=O)c1cc(Cl)cc(C)c1NC(=O)c1cc(C(F)(F)F)nn1-c1ncccc1Cl`, the LC50 was determined as 0.05 µg/mL (≈ 0.106 µM).
`CNC(=O)c1cc(Cl)cc(C)c1NC(=O)c1cc(OC(F)F)nn1-c1ncccc1Cl` displayed an LC50 of 1.08 µg/mL (≈ 2.3 µM).
With `CNC(=O)c1cc(Cl)cc(C)c1NC(=O)c1cc(Br)nn1-c1ncccc1Cl` [CHLORANTRANILIPROLE], the LC50 was 0.04 µg/mL (≈ 0.0828 µM).

A further data set deals with T1, Ryanodine receptor 2 (Homo sapiens, UniProt Q92736). In words: Activation of ryanodine receptor in human IMR32 cells assessed as induction of calcium mobilization at 100 uM. In kind it is cell-based. To be noted: IMR-32.
T1 sequence (Q92736 whole entry): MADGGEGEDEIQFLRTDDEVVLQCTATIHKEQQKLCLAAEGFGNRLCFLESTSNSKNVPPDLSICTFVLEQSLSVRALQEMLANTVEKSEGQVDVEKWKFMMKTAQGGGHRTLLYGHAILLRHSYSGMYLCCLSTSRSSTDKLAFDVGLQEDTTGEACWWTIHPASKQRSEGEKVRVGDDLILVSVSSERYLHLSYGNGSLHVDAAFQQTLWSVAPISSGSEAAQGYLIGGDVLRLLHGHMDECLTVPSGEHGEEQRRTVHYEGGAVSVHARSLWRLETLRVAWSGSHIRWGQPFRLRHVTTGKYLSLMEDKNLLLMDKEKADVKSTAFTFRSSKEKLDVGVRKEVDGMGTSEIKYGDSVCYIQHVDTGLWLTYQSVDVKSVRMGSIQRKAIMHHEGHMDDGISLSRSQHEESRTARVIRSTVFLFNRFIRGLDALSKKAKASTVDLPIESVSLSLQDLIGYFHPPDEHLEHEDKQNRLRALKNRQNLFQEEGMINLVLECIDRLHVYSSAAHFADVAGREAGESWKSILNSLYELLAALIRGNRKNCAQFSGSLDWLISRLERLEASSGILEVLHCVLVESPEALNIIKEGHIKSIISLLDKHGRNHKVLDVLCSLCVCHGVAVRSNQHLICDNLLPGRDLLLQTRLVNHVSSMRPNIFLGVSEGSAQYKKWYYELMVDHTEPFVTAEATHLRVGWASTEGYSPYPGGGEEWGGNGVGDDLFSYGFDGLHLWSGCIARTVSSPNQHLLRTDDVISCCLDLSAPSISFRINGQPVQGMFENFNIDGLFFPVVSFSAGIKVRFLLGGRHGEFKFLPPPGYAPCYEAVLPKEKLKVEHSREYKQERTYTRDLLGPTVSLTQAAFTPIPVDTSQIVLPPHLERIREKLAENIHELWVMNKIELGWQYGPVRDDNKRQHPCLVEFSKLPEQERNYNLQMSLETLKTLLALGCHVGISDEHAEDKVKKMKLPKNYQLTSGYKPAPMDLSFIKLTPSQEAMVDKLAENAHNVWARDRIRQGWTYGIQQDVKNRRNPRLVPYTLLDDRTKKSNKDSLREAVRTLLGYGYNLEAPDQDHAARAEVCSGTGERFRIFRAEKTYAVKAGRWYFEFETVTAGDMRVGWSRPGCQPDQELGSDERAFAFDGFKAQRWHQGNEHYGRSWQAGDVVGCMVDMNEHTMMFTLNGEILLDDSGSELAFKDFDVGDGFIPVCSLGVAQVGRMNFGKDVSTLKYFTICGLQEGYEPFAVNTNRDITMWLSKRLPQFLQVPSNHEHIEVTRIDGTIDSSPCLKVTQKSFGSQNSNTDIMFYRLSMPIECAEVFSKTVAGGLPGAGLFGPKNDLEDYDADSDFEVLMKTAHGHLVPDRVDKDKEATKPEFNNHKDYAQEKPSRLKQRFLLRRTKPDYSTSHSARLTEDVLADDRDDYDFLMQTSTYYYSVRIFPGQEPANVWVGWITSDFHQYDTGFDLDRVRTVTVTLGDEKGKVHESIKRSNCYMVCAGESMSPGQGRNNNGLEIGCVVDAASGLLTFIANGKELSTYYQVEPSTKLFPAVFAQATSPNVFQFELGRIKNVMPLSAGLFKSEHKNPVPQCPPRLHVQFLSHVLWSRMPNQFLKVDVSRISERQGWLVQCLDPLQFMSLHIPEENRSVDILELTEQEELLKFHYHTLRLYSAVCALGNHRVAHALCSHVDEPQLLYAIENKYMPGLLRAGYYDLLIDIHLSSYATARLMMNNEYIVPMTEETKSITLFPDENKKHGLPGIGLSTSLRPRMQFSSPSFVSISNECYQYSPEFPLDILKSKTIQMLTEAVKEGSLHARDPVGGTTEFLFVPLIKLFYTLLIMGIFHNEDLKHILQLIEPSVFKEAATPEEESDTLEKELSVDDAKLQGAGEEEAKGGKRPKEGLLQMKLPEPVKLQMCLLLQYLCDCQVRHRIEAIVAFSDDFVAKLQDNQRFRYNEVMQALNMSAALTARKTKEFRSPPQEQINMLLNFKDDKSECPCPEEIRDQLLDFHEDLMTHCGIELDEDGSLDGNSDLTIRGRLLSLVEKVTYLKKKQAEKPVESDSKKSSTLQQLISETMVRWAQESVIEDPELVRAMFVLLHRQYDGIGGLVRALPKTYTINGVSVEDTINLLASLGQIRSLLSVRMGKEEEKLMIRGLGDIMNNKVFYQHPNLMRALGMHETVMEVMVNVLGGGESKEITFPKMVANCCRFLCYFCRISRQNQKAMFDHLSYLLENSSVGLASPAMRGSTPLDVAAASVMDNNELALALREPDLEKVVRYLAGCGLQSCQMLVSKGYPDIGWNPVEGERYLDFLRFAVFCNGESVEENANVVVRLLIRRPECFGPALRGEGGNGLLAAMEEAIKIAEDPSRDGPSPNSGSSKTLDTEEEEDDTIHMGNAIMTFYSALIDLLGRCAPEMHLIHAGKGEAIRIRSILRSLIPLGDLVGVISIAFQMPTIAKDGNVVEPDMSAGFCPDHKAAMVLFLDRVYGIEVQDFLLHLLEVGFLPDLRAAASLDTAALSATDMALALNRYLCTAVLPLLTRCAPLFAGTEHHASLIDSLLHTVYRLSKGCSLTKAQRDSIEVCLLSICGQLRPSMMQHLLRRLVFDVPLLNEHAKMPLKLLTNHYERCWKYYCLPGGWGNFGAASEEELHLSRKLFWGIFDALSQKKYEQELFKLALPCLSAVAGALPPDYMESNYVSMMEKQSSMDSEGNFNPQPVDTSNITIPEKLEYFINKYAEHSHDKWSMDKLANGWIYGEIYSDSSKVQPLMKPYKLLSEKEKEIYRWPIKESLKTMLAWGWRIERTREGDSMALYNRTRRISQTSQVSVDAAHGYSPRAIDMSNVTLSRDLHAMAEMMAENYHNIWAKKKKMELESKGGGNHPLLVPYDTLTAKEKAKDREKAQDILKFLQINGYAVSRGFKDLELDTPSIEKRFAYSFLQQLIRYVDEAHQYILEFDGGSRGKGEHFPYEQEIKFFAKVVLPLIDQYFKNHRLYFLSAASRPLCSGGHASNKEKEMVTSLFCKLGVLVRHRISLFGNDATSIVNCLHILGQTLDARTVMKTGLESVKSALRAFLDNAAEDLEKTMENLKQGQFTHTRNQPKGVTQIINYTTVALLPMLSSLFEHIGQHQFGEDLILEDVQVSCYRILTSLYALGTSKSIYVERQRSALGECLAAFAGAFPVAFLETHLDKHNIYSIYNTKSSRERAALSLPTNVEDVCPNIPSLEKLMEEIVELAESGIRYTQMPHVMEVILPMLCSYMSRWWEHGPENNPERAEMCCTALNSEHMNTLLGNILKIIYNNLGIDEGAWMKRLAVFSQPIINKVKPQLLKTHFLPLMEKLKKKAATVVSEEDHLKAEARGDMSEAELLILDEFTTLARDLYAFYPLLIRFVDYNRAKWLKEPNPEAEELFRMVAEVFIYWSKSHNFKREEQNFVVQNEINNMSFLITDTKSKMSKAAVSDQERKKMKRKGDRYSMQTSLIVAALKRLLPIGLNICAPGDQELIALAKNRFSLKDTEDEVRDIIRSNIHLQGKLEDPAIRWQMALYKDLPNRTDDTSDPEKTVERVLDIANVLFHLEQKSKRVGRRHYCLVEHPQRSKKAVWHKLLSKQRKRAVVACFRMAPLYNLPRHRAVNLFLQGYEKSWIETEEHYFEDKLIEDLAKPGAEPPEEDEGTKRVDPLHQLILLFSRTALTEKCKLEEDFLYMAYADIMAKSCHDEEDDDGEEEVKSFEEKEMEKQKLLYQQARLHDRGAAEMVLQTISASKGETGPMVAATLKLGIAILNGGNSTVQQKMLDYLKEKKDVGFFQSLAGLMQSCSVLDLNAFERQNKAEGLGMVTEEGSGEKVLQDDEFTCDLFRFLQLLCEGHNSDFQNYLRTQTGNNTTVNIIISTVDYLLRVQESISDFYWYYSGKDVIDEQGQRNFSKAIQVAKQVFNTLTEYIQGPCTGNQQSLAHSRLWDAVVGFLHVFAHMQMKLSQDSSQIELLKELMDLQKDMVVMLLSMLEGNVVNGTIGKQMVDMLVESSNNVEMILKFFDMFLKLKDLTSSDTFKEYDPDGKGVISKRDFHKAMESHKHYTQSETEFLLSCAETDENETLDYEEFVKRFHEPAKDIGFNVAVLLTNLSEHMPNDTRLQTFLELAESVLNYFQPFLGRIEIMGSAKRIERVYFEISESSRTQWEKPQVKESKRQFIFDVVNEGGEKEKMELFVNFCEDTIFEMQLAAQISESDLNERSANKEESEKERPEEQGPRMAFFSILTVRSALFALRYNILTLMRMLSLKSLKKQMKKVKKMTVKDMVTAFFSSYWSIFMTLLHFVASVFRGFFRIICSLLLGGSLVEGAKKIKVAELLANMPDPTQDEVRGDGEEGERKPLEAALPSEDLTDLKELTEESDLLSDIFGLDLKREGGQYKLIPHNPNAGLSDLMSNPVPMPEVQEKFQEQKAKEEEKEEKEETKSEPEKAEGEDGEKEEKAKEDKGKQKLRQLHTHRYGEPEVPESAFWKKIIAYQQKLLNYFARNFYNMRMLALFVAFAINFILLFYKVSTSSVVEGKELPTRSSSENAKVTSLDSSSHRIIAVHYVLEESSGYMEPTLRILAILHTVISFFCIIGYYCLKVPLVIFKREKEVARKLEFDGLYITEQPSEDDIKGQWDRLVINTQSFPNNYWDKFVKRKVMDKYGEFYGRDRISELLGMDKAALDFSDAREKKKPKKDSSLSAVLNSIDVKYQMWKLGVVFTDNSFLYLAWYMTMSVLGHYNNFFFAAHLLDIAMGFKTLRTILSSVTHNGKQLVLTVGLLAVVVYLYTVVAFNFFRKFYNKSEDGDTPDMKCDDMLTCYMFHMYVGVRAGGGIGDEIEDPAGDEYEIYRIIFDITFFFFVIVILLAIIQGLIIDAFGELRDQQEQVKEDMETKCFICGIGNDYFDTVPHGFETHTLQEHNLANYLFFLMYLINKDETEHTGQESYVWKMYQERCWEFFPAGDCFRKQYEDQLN
Turning to `CNC(=O)c1cc(Cl)cc(C)c1NC(=O)c1cc(Br)nn1-c1ncccc1Cl` [CHLORANTRANILIPROLE], the result was inactive.

A further data set concerns Rattus norvegicus. Nature of the data set: Toxicity in rat above 1000 mg/kg/day. The following applies: in vivo. In kind it is organism-based.
In the case of `CNC(=O)c1cc(Cl)cc(C)c1NC(=O)c1cc(Br)nn1-c1ncccc1Cl` [CHLORANTRANILIPROLE], the Activity result is “Non-toxic”.

The test system of the next data set is PC-12. In words: Activation of ryanodine receptor in rat PC12 cells assessed as induction of calcium mobilization at 100 uM.
Settings: not given
The format is cell-based. For orientation: Calcium assays in cells follow changes in intracellular calcium, usually with a dye or a luminescent sensor.
Regarding `CNC(=O)c1cc(Cl)cc(C)c1NC(=O)c1cc(Br)nn1-c1ncccc1Cl` [CHLORANTRANILIPROLE], the Activity came out at 20%.

For the next data set, the system named is Oryctolagus cuniculus. In words: Toxicity in rabbit above 1000 mg/kg/day. The format is organism-based. The following applies: in vivo.
Take `CNC(=O)c1cc(Cl)cc(C)c1NC(=O)c1cc(Br)nn1-c1ncccc1Cl` [CHLORANTRANILIPROLE]: the Activity entry is recorded as “Non-toxic”.

A further data set concerns Plutella xylostella. Nature of the data set: Insecticidal activity against Plutella xylostella. In kind it is functional.
Settings: not given
For the compound `Cc1cc(Cl)cc(C(=O)NC(C)C)c1NC(=O)c1cc(Br)nn1-c1ncccc1Cl`, the LC50 turned out to be 0.04 µg/mL (≈ 0.0782 µM).
Take `Cc1cc(C(F)(F)F)cc(C(=O)NC(C)C)c1NC(=O)c1cc(C(F)(F)F)nn1-c1ncccc1Cl`: the LC50 turned out to be 0.07 µg/mL (≈ 0.131 µM).
With `COc1cc(C(=O)Nc2c(C)cc(Cl)cc2C(=O)NC(C)C)n(-c2ncccc2Cl)n1`, the LC50 came out at 0.18 µg/mL (≈ 0.389 µM).
`CNC(=O)c1cc(Br)cc(C)c1NC(=O)c1cc(Br)nn1-c1ncccc1Cl` registered an LC50 of 0.06 µg/mL (≈ 0.114 µM).
In turn, `Cc1cc(Cl)cc(C(=O)NC(C)C)c1NC(=O)c1cc(C(F)(F)F)nn1-c1ncccc1Cl` showed an LC50 of 0.01 µg/mL (≈ 0.02 µM).
For `CNC(=O)c1cc(Cl)cc(C)c1NC(=O)c1cc(OC)nn1-c1ncccc1Cl`, the LC50 amounted to 0.33 µg/mL (≈ 0.76 µM).
`CNC(=O)c1cc(Cl)cc(C)c1NC(=O)c1cc(C(F)(F)F)nn1-c1ncccc1Cl` yielded an LC50 of 0.01 µg/mL (≈ 0.0212 µM).
In turn, `CNC(=O)c1cc(Cl)cc(C)c1NC(=O)c1cc(OC(F)F)nn1-c1ncccc1Cl` gave an LC50 of 0.38 µg/mL (≈ 0.808 µM).
On to `CNC(=O)c1cc(Cl)cc(C)c1NC(=O)c1cc(Br)nn1-c1ncccc1Cl` [CHLORANTRANILIPROLE], for which the LC50 was 0.02 µg/mL (≈ 0.0414 µM).

Test system in another data set: not listed separately
Nature of the data set: Activation of Heliothis virescens recombinant ryanodine receptor expressed in Sf9 cells assessed as induction of calcium mobilization.
Settings: not given
For the compound `Cc1cc(Cl)cc(C(=O)NC(C)C)c1NC(=O)c1cc(Br)nn1-c1ncccc1Cl`, the EC50 was determined as 458 nM.
With `Cc1cc(C(F)(F)F)cc(C(=O)NC(C)C)c1NC(=O)c1cc(C(F)(F)F)nn1-c1ncccc1Cl`, the EC50 was found to be 3700 nM.
For the compound `COc1cc(C(=O)Nc2c(C)cc(Cl)cc2C(=O)NC(C)C)n(-c2ncccc2Cl)n1`, the EC50 came to 387 nM.
`CNC(=O)c1cc(Br)cc(C)c1NC(=O)c1cc(Br)nn1-c1ncccc1Cl`: the concentration for a half-maximal effect (EC50) was determined as 63 nM.
On the same count and under the same terms, to `Cc1cc(Cl)cc(C(=O)NC(C)C)c1NC(=O)c1cc(C(F)(F)F)nn1-c1ncccc1Cl` belongs 1830 nM; to `CNC(=O)c1cc(Cl)cc(C)c1NC(=O)c1cc(OC)nn1-c1ncccc1Cl`, 101 nM; to `CNC(=O)c1cc(Cl)cc(C)c1NC(=O)c1cc(C(F)(F)F)nn1-c1ncccc1Cl`, 73 nM.
Regarding `CNC(=O)c1cc(Cl)cc(C)c1NC(=O)c1cc(OC(F)F)nn1-c1ncccc1Cl`, the EC50 came out at 60 nM.
As for `CNC(=O)c1cc(Cl)cc(C)c1NC(=O)c1cc(Br)nn1-c1ncccc1Cl` [CHLORANTRANILIPROLE], the EC50 was 52 nM and 50 nM.

The next data set has as its target T1, Ryanodine receptor 2. Nature of the data set: Activation of ryanodine receptor in human IMR32 cells assessed as induction of calcium mobilization.
Settings: not given
In kind it is cell-based, IMR-32.
Take `CNC(=O)c1cc(Cl)cc(C)c1NC(=O)c1cc(Br)nn1-c1ncccc1Cl` [CHLORANTRANILIPROLE]: the EC50 is more than 100000 nM.

Still in this data set, the particulars now being: IMR-32.
With `Cn1c(=O)c2c(ncn2C)n(C)c1=O`, the Activity result is “Dose-dependent effect”.

In the next data set the test system is Spodoptera frugiperda. Nature of the data set: Insecticidal activity against Spodoptera frugiperda. In kind it is functional.
Settings: not given
Regarding `Cc1cc(Cl)cc(C(=O)NC(C)C)c1NC(=O)c1cc(Br)nn1-c1ncccc1Cl`, the LC50 amounted to 0.04 µg/mL (≈ 0.0782 µM).
`Cc1cc(C(F)(F)F)cc(C(=O)NC(C)C)c1NC(=O)c1cc(C(F)(F)F)nn1-c1ncccc1Cl`: the LC50 was 0.39 µg/mL (≈ 0.731 µM).
Same read-out and setting: to `COc1cc(C(=O)Nc2c(C)cc(Cl)cc2C(=O)NC(C)C)n(-c2ncccc2Cl)n1` belongs 0.3 µg/mL (≈ 0.649 µM); to `CNC(=O)c1cc(Br)cc(C)c1NC(=O)c1cc(Br)nn1-c1ncccc1Cl`, 0.18 µg/mL (≈ 0.341 µM).
The same measure, in the same setting: in the case of `Cc1cc(Cl)cc(C(=O)NC(C)C)c1NC(=O)c1cc(C(F)(F)F)nn1-c1ncccc1Cl` it was 0.03 µg/mL (≈ 0.06 µM).
Same read-out and setting: in the case of `CNC(=O)c1cc(Cl)cc(C)c1NC(=O)c1cc(OC)nn1-c1ncccc1Cl` it was 0.68 µg/mL (≈ 1.57 µM); in that of `CNC(=O)c1cc(Cl)cc(C)c1NC(=O)c1cc(C(F)(F)F)nn1-c1ncccc1Cl`, 0.02 µg/mL (≈ 0.0424 µM).
On to `CNC(=O)c1cc(Cl)cc(C)c1NC(=O)c1cc(OC(F)F)nn1-c1ncccc1Cl`, for which the 50% lethal concentration (LC50) came to 0.21 µg/mL (≈ 0.447 µM).
The compound `CNC(=O)c1cc(Cl)cc(C)c1NC(=O)c1cc(Br)nn1-c1ncccc1Cl` [CHLORANTRANILIPROLE] returned an LC50 of 0.02 µg/mL (≈ 0.0414 µM).

Test system in a further data set: not listed separately
In words: Activation of ryanodine receptor in rat PC12 cells assessed as induction of calcium mobilization. The format is cell-based. The following applies: PC-12.
For `CNC(=O)c1cc(Cl)cc(C)c1NC(=O)c1cc(Br)nn1-c1ncccc1Cl` [CHLORANTRANILIPROLE], the EC50 is more than 100000 nM.

Test system in the next data set: not listed separately
In words: Activation of ryanodine receptor in mouse C2C12 cells assessed as induction of calcium mobilization. The format is cell-based.
Settings: not given
As for `CNC(=O)c1cc(Cl)cc(C)c1NC(=O)c1cc(Br)nn1-c1ncccc1Cl` [CHLORANTRANILIPROLE], the EC50 came out at 14000 nM.

Test system in another data set: not listed separately
Nature of the data set: Toxicity in po dosed rat. In kind it is organism-based. To be noted: in vivo.
With `CNC(=O)c1cc(Cl)cc(C)c1NC(=O)c1cc(Br)nn1-c1ncccc1Cl` [CHLORANTRANILIPROLE], the LD50 is more than 5000 mg/kg.

The next data set addresses Ryanodine receptor (Drosophila melanogaster, UniProt Q24498). In words: Activation of Drosophila melanogaster ryanodine receptor in Sf9 cells assessed as induction of calcium mobilization. The format is cell-based.
Settings: not given
Turning to `CNC(=O)c1cc(Cl)cc(C)c1NC(=O)c1cc(Br)nn1-c1ncccc1Cl` [CHLORANTRANILIPROLE], the EC50 was found to be 40 nM.
